From patent US20030134859A1 (SANKYO COMPANY, LIMITED, priority 2000, published 2003)
Where a name gives a salt, the structure may show the parent alone.

Columns and labels:
Rat white adipocytes = assay: Inhibition of the differentiation of adipocytes (Oil Red O); assay type: cell-based; settings: 100 nM test compound, 5 days, Oil Red O ABS550, control = 100%, blank = 0%, Table 3; for activity at 0.1 µM: Rattus norvegicus, Adipocyte, 120 h, read-out: Rate of Differentiation (%)
How it was run: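 Rat white preadipocytes, 5,000 cells/well, given differentiation medium with compound at 100 nM final (0.1% DMSO) for 5 days at 37 °C. Lipid stained with Oil Red O, eluted in DMSO, read at 550 nm; differentiation % relative to DMSO control (100%) and blank (0%).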

leptin production = assay: Enhancing activity for leptin production in adipocytes (ELISA); assay type: cell-based, rat; settings: leptin concentration as % of control group; for activity at 1 µM / activity at 0.1 µM / activity at 0.001 µM / activity at 0.01 µM: Rattus norvegicus, Adipocyte, 24 h, read-out: Facilitating activity to produce leptin; for activity at 0.001 µM: 1 nm; for Facilitating activity to produce leptin: 24 hr
How it was run: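 Leptin release, quantified by rat leptin ELISA, expressed as percent of 0.1% DMSO control after 24 h at 37 °C. Cells were floating adipocytes isolated by collagenase digestion of epididymal fat from male 6-week Wistar Imamichi rats; compound tested at 1 nM–1 µM final.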

SMILES | Rate of Differentiation (%) (Rat white adipocytes; mono-hydrochloride) | activity at 1 µM (leptin production; 1 μM) | activity at 0.1 µM (leptin production; 100 nm) | activity at 0.1 µM (Rat white adipocytes) | activity at 0.001 µM (leptin production) | activity at 0.01 µM (leptin production; 10 nm) | Rate of Differentiation (%) (Rat white adipocytes) | Facilitating activity to produce leptin (leptin production; 1 μM) | Facilitating activity to produce leptin (leptin production; 100 nm) | Facilitating activity to produce leptin (leptin production; 10 nm)
Nc1ccc(-c2ccc(NC(=O)c3cc([N+](=O)[O-])ccc3Cl)cc2)cc1 [Example 88, N-[4-(4-Aminophenyl)phenyl]-(2-chloro-5-nitrophenyl)carboxamide mono-hydrochloride] | 63.3% | 115% | 119% | – | – | – | – | – | – | –
CS(=O)(=O)Nc1ccc(-c2ccc(NC(=O)c3cc([N+](=O)[O-])ccc3Cl)cc2)cc1 [Example 93, N-[4-[4-(Methanesulfonylamino)phenyl]phenyl]-(2-chloro-5-nitrophenyl)carboxamide] | – | 114% | – | 62.9% | – | – | – | – | – | –
Cc1ccc(S(=O)(=O)Nc2ccc(-c3ccc(NC(=O)c4cc([N+](=O)[O-])ccc4Cl)cc3)cc2)cc1 [Example 94, N-[4-[4-(4-Toluenesulfonylamino)phenyl]phenyl]-(2-chloro-5-nitrophenyl)carboxamide] | – | 116% | 110% | 68.8% | – | – | – | – | – | –
CC(=O)Nc1ccc(-c2ccc(NC(=O)c3cc([N+](=O)[O-])ccc3Cl)cc2)cc1 [Example 118, N-[4-(4-Acetylaminophenyl)phenyl]-(2-chloro-5-nitrophenyl)carboxamide] | – | 134% | 127% | 53.6% | 114% | 115% | – | – | – | –
O=C(Nc1ccc(-c2ccc(NC(=O)c3cc([N+](=O)[O-])ccc3Cl)cc2)cc1)c1ccccc1 [Example 120, N-[4-(4-Benzoylaminophenyl)phenyl]-(2-chloro-5-nitrophenyl)carboxamide] | – | 121% | 119% | 79.8% | 108% | 110% | – | – | – | –
O=C(Nc1ccc(-c2ccc(NC(=O)c3cc([N+](=O)[O-])ccc3Cl)cc2)cc1)c1cccnc1 [Example 124, N-[4-[4-(Pyridin-3-ylcarbonylamino)phenyl]phenyl]-(2-chloro-5-nitrophenyl)carboxamide] | – | 124% | 146% | 84.2% | 113% | 113% | – | – | – | –
O=C(Nc1ccc(-c2ccc(NC(=O)c3cc([N+](=O)[O-])ccc3Cl)cc2)cc1)c1ccncc1 [Example 126, N-[4-[4-(Pyridin-4-ylcarbonylamino)phenyl]phenyl]-(2-chloro-5-nitrophenyl)carboxamide] | – | 142% | 121% | 75.2% | – | 109% | – | – | – | –
CCS(=O)(=O)Nc1ccc(-c2ccc(NC(=O)c3cc([N+](=O)[O-])ccc3Cl)cc2)cc1 [Example 130, N-[4-(4-Ethanesulfonylaminophenyl)phenyl]-(2-chloro-5-nitrophenyl)carboxamide] | – | 116% | 123% | 64% | – | – | – | – | – | –
Cl.O=C(Nc1ccncc1)c1cc([N+](=O)[O-])ccc1Cl [Example 146, N-(Pyridin-4-yl)-(2-chloro-5-nitrophenyl)carboxamide Hydrochloride] | – | 126% | 138% | – | – | 112% | 78.2% | – | – | –
Cc1ccc(C(=O)Nc2nc3ccc(NC(=O)c4cc([N+](=O)[O-])ccc4Cl)cc3s2)cc1 [Example 149, N-[2-(4-Methylbenzoylamino)benzothiazol-6-yl]-(2-chloro-5-nitrophenyl)carboxamide] | – | 117% | 111% | 80.3% | – | – | – | – | – | –
CC(=O)c1ccc(NC(=O)c2cc([N+](=O)[O-])ccc2Cl)cc1 [Example 155, N-(4-Acetylphenyl)-(2-chloro-5-nitrophenyl)carboxamide] | – | 114% | 130% | 82.7% | – | – | – | – | – | –
O=C(Nc1ccc(-n2ccnc2)cc1)c1cc([N+](=O)[O-])ccc1Cl [Example 174, N-[4-(Imidazol-1-yl)phenyl]-(2-chloro-5-nitrophenyl)carboxamide] | – | – | 127% | 68.8% | 118% | 123% | – | – | – | –
O=C(Nc1ccc(-c2ccc(N3CCCCC3)cc2)cc1)c1cc([N+](=O)[O-])ccc1Cl [Example 177, N-[4-[4-(Piperidin-1-yl)phenyl]phenyl]-(2-chloro-5-nitrophenyl)carboxamide] | – | 145% | 134% | 14% | – | 121% | – | – | – | –
O=C(Nc1ccc(N2CCN(C(=O)c3ccccc3)CC2)cc1)c1cc([N+](=O)[O-])ccc1Cl [Example 184, N-[4-(4-Benzoylpiperazin-1-yl)phenyl]-(2-chloro-5-nitrophenyl)carboxamide] | – | – | 123% | 46.6% | – | 122% | – | – | – | –
Nc1ccc(-c2ccc(NC(=O)c3cc([N+](=O)[O-])ccc3Cl)cc2)cc1 [Example 192, N-[4-(4-Aminophenyl)phenyl]-(2-chloro-5-nitrophenyl)carboxamide] | – | – | – | – | – | 122% | 17.6% | 112.1% | 121.7% | –
CCCCNc1ccc(-c2ccc(NC(=O)c3cc([N+](=O)[O-])ccc3Cl)cc2)cc1 [Example 203, N-[4-[4-(N-Butylamiino)phenyl]phenyl]-(2-chloro-5-nitrophenyl)carboxamide] | – | – | – | – | – | – | 32.6% | 133.9% | 124.8% | 134.6%
CCCNc1ccc(-c2ccc(NC(=O)c3cc([N+](=O)[O-])ccc3Cl)cc2)cc1 [Example 204, N-[4-[4-(N-Propylamino)phenyl]phenyl]-(2-chloro-5-nitrophenyl)carboxamide] | – | 133% | 143% | 38.3% | – | 129% | – | – | – | –
CCNc1ccc(-c2ccc(NC(=O)c3cc([N+](=O)[O-])ccc3Cl)cc2)cc1 [Example 205, N-[4-[4-(N-Ethylamino)phenyl]phenyl]-(2-chloro-5-nitrophenyl)carboxamide] | – | 120% | 123% | 39.8% | – | 123% | – | – | – | –
CCCCCN(CCCC)c1ccc(-c2ccc(NC(=O)c3cc([N+](=O)[O-])ccc3Cl)cc2)cc1 [Example 206, N-[4-[4-(N-Butyl-N-pentylamino)phenyl]phenyl]-(2-chloro-5-nitrophenyl)carboxamide] | – | 119% | 112% | 30.6% | – | – | – | – | – | –
CCCCN(CCCC)c1ccc(-c2ccc(NC(=O)c3cc([N+](=O)[O-])ccc3Cl)cc2)cc1 [Example 207, N-[4-[4-(N,N-Dibutylamino)phenyl]phenyl]-(2-chloro-5-nitrophenyl)carboxamide] | – | 116% | 110% | 32.7% | – | 107% | – | – | – | –
CCCCN(CCC)c1ccc(-c2ccc(NC(=O)c3cc([N+](=O)[O-])ccc3Cl)cc2)cc1 [Example 208, N-[4-[4-(N-Butyl-N-propylamino)phenyl]phenyl]-(2-chloro-5-nitrophenyl)carboxamide] | – | – | 111% | 35.1% | – | – | – | – | – | –
CCCCN(CC)c1ccc(-c2ccc(NC(=O)c3cc([N+](=O)[O-])ccc3Cl)cc2)cc1 [Example 209, N-[4-[4-(N-Butyl-N-ethylamino)phenyl]phenyl]-(2-chloro-5-nitrophenyl)carboxamide] | – | 117% | 111% | 40.1% | – | – | – | – | – | –
CCCN(CC)c1ccc(-c2ccc(NC(=O)c3cc([N+](=O)[O-])ccc3Cl)cc2)cc1 [Example 212, N-[4-[4-(N-Ethyl-N-propylamino)phenyl]phenyl]-(2-chloro-5-nitrophenyl)carboxamide] | – | 112% | – | 44% | – | – | – | – | – | –
CCCCCN(CCCCC)c1ccc(-c2ccc(NC(=O)c3cc([N+](=O)[O-])ccc3Cl)cc2)cc1 [Example 214, N-[4-[4-(N,N-Dipentylamino)phenyl]phenyl]-(2-chloro-5-nitrophenyl)carboxamide] | – | 125% | 125% | 31.7% | – | 112% | – | – | – | –
CCCCCN(CC)c1ccc(-c2ccc(NC(=O)c3cc([N+](=O)[O-])ccc3Cl)cc2)cc1 [Example 216, N-[4-[4-(N-Ethyl-N-pentylamino)phenyl]phenyl]-(2-chloro-5-nitrophenyl)carboxamide] | – | 117% | 112% | 32.1% | – | 113% | – | – | – | –
CCN(CC)c1ccc(-c2ccc(NC(=O)c3cc([N+](=O)[O-])ccc3Cl)cc2)cc1 [Example 217, N-[4-[4-(N,N-Diethylamino)phenyl]phenyl]-(2-chloro-5-nitrophenyl)carboxamide] | – | 121% | 117% | 21% | – | 116% | – | – | – | –
